Key:
[1] = test system: Puccinia recondita f. Sp. Tritici; assay: Fungicidal activity, wheat leaf disc preventative (brown rust); assay type: in vivo; settings: foliar, 200 ppm in the applied formulation, wheat leaf segments cv. Kanzler, compared to untreated control, 7 to 9 days after application, read-out: disease control
Outline: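 Preventative leaf-segment test: spray application of diluted formulated compound on wheat cv. Kanzler, spore inoculation after 1 day. Percent control relative to untreated segments rated 7 to 9 days post-application, with incubation at 19° C, 75% relative humidity, 12 h photoperiod.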

[2] = test system: Puccinia recondita f. Sp. Tritici; assay: Fungicidal activity, wheat leaf disc curative (brown rust); assay type: in vivo; settings: foliar, 200 ppm in the applied formulation, wheat leaf segments cv. Kanzler, curative (applied 1 day after inoculation), compared to untreated control, 6 to 8 days after application, read-out: disease control
Outline: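 Compounds, prepared from DMSO solutions of at most 10 mg/ml and diluted just before spraying, are applied curatively to inoculated Kanzler wheat leaf segments. Segments are incubated at 19° C and 75% RH in a climate cabinet; disease control relative to untreated is evaluated 6 to 8 days later.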

Phakopsora pachyrhizi = assay: Fungicidal activity, soybean leaf disc preventative (Asian soybean rust); assay type: in vivo; settings: foliar, 200 ppm in the applied formulation, soybean leaf disks, compared to untreated control, 12 to 14 days after application, read-out: disease control
Outline: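 Read-out is percent disease control relative to untreated check discs, assessed once untreated discs show adequate disease, 12 to 14 days after application. Compounds, tested at 200 ppm in the applied formulation, are sprayed onto soybean leaf discs one day before inoculation with a spore suspension.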

[3] = test system: Glomerella lacenarium (Colletotrichum lacenarium); assay: Fungicidal activity, liquid culture, cucumber preventative (anthracnose); assay type: cell-based; settings: 20 ppm in the applied formulation, liquid culture in PDB, inhibition of growth measured photometrically 3 to 4 days after application, compared to untreated control, read-out: disease control
Outline: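 Spore-based broth assay: conidia mixed into PDB meet compound from a DMSO solution in 96-well format, incubate at 24° C., then inhibition of growth is determined by photometry 3–4 days later relative to the untreated check.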

CCCC(=O)N(Cc1ccc(-c2noc(C(F)(F)F)n2)s1)OC [Compound 1.21, N-methoxy-N-[[5-[5-(trifluoromethyl)-1,2,4-oxadiazol-3-yl]-2-thienyl]methyl]butanamide]
≥ 80%: pest or weed control at 200 ppm [1] | pest or weed control at 200 ppm [2] | pest or weed control at 200 ppm (Phakopsora pachyrhizi) | inhibition of growth at 20 ppm [3]

CC(=O)NCc1ccc(-c2noc(C(F)(F)F)n2)s1 [Compound 2.11, N-[[5-[5-(trifluoromethyl)-1,2,4-oxadiazol-3-yl]-2-thienyl]methyl]acetamide]
≥ 80%: pest or weed control at 200 ppm [1] | pest or weed control at 200 ppm [2] | pest or weed control at 200 ppm (Phakopsora pachyrhizi) | inhibition of growth at 20 ppm [3]

CCN(Cc1ccc(-c2noc(C(F)(F)F)n2)s1)C(=O)NC [Compound 4.5, 1-ethyl-3-methyl-1-[[5-[5-(trifluoromethyl)-1,2,4-oxadiazol-3-yl]-2-thienyl]methyl]urea]
≥ 80%: pest or weed control at 200 ppm [1] | pest or weed control at 200 ppm [2] | pest or weed control at 200 ppm (Phakopsora pachyrhizi) | inhibition of growth at 20 ppm [3]

CON(Cc1ccc(-c2noc(C(F)(F)F)n2)s1)C(=O)N1CCC2(CC2)C1 [Compound 1.58, N-methoxy-N-[[5-[5-(trifluoromethyl)-1,2,4-oxadiazol-3-yl]-2-thienyl]methyl]-5-azaspiro[2.4]heptane-5-carboxamide]
≥ 80%: pest or weed control at 200 ppm [1] | pest or weed control at 200 ppm [2] | pest or weed control at 200 ppm (Phakopsora pachyrhizi) | inhibition of growth at 20 ppm [3]

CCC(=O)NCc1ccc(-c2noc(C(F)(F)F)n2)s1 [Compound 2.5, N-[[5-[5-(trifluoromethyl)-1,2,4-oxadiazol-3-yl]-2-thienyl]methyl]propanamide]
≥ 80%: pest or weed control at 200 ppm [1] | pest or weed control at 200 ppm [2] | pest or weed control at 200 ppm (Phakopsora pachyrhizi) | inhibition of growth at 20 ppm [3]

O=C(CC(F)(F)F)NCc1ccc(-c2noc(C(F)(F)F)n2)s1 [Compound 2.12, 3,3,3-trifluoro-N-[[5-[5-(trifluoromethyl)-1,2,4-oxadiazol-3-yl]-2-thienyl]methyl]propanamide]
≥ 80%: pest or weed control at 200 ppm [1] | pest or weed control at 200 ppm [2] | pest or weed control at 200 ppm (Phakopsora pachyrhizi) | inhibition of growth at 20 ppm [3]

COCCCC(=O)NCc1ccc(-c2noc(C(F)(F)F)n2)s1 [Compound 2.10, 4-methoxy-N-[[5-[5-(trifluoromethyl)-1,2,4-oxadiazol-3-yl]-2-thienyl]methyl]butanamide]
≥ 80%: pest or weed control at 200 ppm [1] | pest or weed control at 200 ppm [2] | pest or weed control at 200 ppm (Phakopsora pachyrhizi) | inhibition of growth at 20 ppm [3]

O=C(NCc1ccc(-c2noc(C(F)(F)F)n2)s1)C1CC1(F)F (stereo not drawn) [Compound 3.2, 2,2-difluoro-N-[[5-[5-(trifluoromethyl)-1,2,4-oxadiazol-3-yl]-2-thienyl]methyl]cyclopropanecarboxamide]
≥ 80%: pest or weed control at 200 ppm [1] | pest or weed control at 200 ppm [2] | pest or weed control at 200 ppm (Phakopsora pachyrhizi) | inhibition of growth at 20 ppm [3]

COCCC(=O)N(Cc1ccc(-c2noc(C(F)(F)F)n2)s1)C1CC1 [Compound 4.55, N-cyclopropyl-3-methoxy-N-[[5-[5-(trifluoromethyl)-1,2,4-oxadiazol-3-yl]-2-thienyl]methyl]propanamide]
≥ 80%: pest or weed control at 200 ppm [1] | pest or weed control at 200 ppm [2] | pest or weed control at 200 ppm (Phakopsora pachyrhizi) | inhibition of growth at 20 ppm [3]

COCCC(=O)N(Cc1ccc(-c2noc(C(F)(F)F)n2)s1)C(C)C [Compound 4.45, N-isopropyl-3-methoxy-N-[[5-[5-(trifluoromethyl)-1,2,4-oxadiazol-3-yl]-2-thienyl]methyl]propanamide]
≥ 80%: pest or weed control at 200 ppm [1] | pest or weed control at 200 ppm [2] | pest or weed control at 200 ppm (Phakopsora pachyrhizi) | inhibition of growth at 20 ppm [3]

CN(Cc1ccc(-c2noc(C(F)(F)F)n2)s1)C(=O)C1CC1(F)F (stereo not drawn) [Compound 5.24, 2,2-difluoro-N-methyl-N-[[5-[5-(trifluoromethyl)-1,2,4-oxadiazol-3-yl]-2-thienyl]methyl]cyclopropanecarboxamide]
≥ 80%: pest or weed control at 200 ppm [1] | pest or weed control at 200 ppm [2] | pest or weed control at 200 ppm (Phakopsora pachyrhizi) | inhibition of growth at 20 ppm [3]

CN(Cc1ccc(-c2noc(C(F)(F)F)n2)s1)C(=O)C1(C)CC1 [Compound 5.21, N,1-dimethyl-N-[[5-[5-(trifluoromethyl)-1,2,4-oxadiazol-3-yl]-2-thienyl]methyl]cyclopropanecarboxamide]
≥ 80%: pest or weed control at 200 ppm [1] | pest or weed control at 200 ppm [2] | pest or weed control at 200 ppm (Phakopsora pachyrhizi) | inhibition of growth at 20 ppm [3]

O=C(CC1CC1)NCc1ccc(-c2noc(C(F)(F)F)n2)s1 [Compound 3.10, 2-cyclopropyl-N-[[5-[5-(trifluoromethyl)-1,2,4-oxadiazol-3-yl]-2-thienyl]methyl]acetamide]
≥ 80%: pest or weed control at 200 ppm [1] | pest or weed control at 200 ppm [2] | pest or weed control at 200 ppm (Phakopsora pachyrhizi) | inhibition of growth at 20 ppm [3]

COCCNC(=O)N(C)Cc1ccc(-c2noc(C(F)(F)F)n2)s1 [Compound 4.78, 3-(2-methoxyethyl)-1-methyl-1-[[5-[5-(trifluoromethyl)-1,2,4-oxadiazol-3-yl]-2-thienyl]methyl]urea]
≥ 80%: pest or weed control at 200 ppm [1] | pest or weed control at 200 ppm [2] | pest or weed control at 200 ppm (Phakopsora pachyrhizi) | inhibition of growth at 20 ppm [3]

CC1(C(=O)NCc2ccc(-c3noc(C(F)(F)F)n3)s2)CC1 [Compound 3.6, 1-methyl-N-[[5-[5-(trifluoromethyl)-1,2,4-oxadiazol-3-yl]-2-thienyl]methyl]cyclopropanecarboxamide]
≥ 80%: pest or weed control at 200 ppm [1] | pest or weed control at 200 ppm [2] | pest or weed control at 200 ppm (Phakopsora pachyrhizi) | inhibition of growth at 20 ppm [3]

C#CCNC(=O)N(Cc1ccc(-c2noc(C(F)(F)F)n2)s1)C(C)C [Compound 4.85, 1-isopropyl-3-prop-2-ynyl-1-[[5-[5-(trifluoromethyl)-1,2,4-oxadiazol-3-yl]-2-thienyl]methyl]urea]
≥ 80%: pest or weed control at 200 ppm [1] | pest or weed control at 200 ppm [2] | pest or weed control at 200 ppm (Phakopsora pachyrhizi) | inhibition of growth at 20 ppm [3]

CCN(Cc1ccc(-c2noc(C(F)(F)F)n2)s1)C(=O)CCCOC [Compound 4.28, N-ethyl-4-methoxy-N-[[5-[5-(trifluoromethyl)-1,2,4-oxadiazol-3-yl]-2-thienyl]methyl]butanamide]
≥ 80%: pest or weed control at 200 ppm [1] | pest or weed control at 200 ppm [2] | pest or weed control at 200 ppm (Phakopsora pachyrhizi) | inhibition of growth at 20 ppm [3]

CCN(CC)C(=O)N(C)Cc1ccc(-c2noc(C(F)(F)F)n2)s1 [Compound 4.79, 1,1-diethyl-3-methyl-3-[[5-[5-(trifluoromethyl)-1,2,4-oxadiazol-3-yl]-2-thienyl]methyl]urea]
≥ 80%: pest or weed control at 200 ppm [1] | pest or weed control at 200 ppm [2] | pest or weed control at 200 ppm (Phakopsora pachyrhizi) | inhibition of growth at 20 ppm [3]

CON(Cc1ccc(-c2noc(C(F)(F)F)n2)s1)C(C)=O [Compound 1.25, N-methoxy-N-[[5-[5-(trifluoromethyl)-1,2,4-oxadiazol-3-yl]-2-thienyl]methyl]acetamide]
≥ 80%: pest or weed control at 200 ppm [1] | pest or weed control at 200 ppm [2] | pest or weed control at 200 ppm (Phakopsora pachyrhizi) | inhibition of growth at 20 ppm [3]

CON(Cc1ccc(-c2noc(C(F)(F)F)n2)s1)C(=O)C1CC1C (stereo not drawn) [Compound 1.14, N-methoxy-2-methyl-N-[[5-[5-(trifluoromethyl)-1,2,4-oxadiazol-3-yl]-2-thienyl]methyl]cyclopropanecarboxamide]
≥ 80%: pest or weed control at 200 ppm [1] | pest or weed control at 200 ppm [2] | pest or weed control at 200 ppm (Phakopsora pachyrhizi) | inhibition of growth at 20 ppm [3]

CN(Cc1ccc(-c2noc(C(F)(F)F)n2)s1)C(=O)CC1CC1 [Compound 5.18, 2-cyclopropyl-N-methyl-N-[[5-[5-(trifluoromethyl)-1,2,4-oxadiazol-3-yl]-2-thienyl]methyl]acetamide]
≥ 80%: pest or weed control at 200 ppm [1] | pest or weed control at 200 ppm [2] | pest or weed control at 200 ppm (Phakopsora pachyrhizi) | inhibition of growth at 20 ppm [3]

Source: patent publication US20200187502A1, “MICROBIOCIDAL OXADIAZOLE DERIVATIVES” (SYNGENTA PARTICIPATIONS AG, priority 2017, published 2020)
